US20250281433A1, “NOVEL DERIVATIVE COMPOUND HAVING BIPHENYL GROUP INTRODUCED INTO AMINO-ALKANOIC ACID AND ANTI-INFLAMMATORY COMPOSITION COMPRISING SAME” (AMTIXBIO CO., LTD., priority 2020, published 2025)

How the values were obtained:
[1] = system: psoriasis symptoms induced by Aldara cream in BALB/c mice; assay: Aldara cream-induced mouse psoriasis model: skin lesions / PASI score; type: in vivo; conditions: topical 150 μl for 4 days from 4th day, Compound 51 1%, Betamethasone 0.05%, versus Veh; for skin lesions (pictures, visual): 8th day; for PASI Score: p<0.001
Description: (§1) After dissolving the test substance (Compound 51 of the present invention) using DMSO (Dimethyl sulfoxide, Sigma, Cat No. 472301), an appropriate concentration was prepared with PBS (HyClone, Cat No. SH30028.02). The transdermal test substance was prepared by dissolving the test substance in 100% ethanol (Medchem, Cat No. HY-13571). Betamethasone dipropionate (Sigma, Cat No. D1756, Lot No. BCBW7684), a positive control, was dissolved in DMSO, and PEG400 (Sigma, Cat. No. 06855) and 30% ethanol (Daejung, Cat. No. 4023-4100) were added to the mixture obtained above. The same vehicle was used for the negative control in the same way as the positive control specimen preparation.
BALB/c mice (purchased through JA BIO, 27 males, 8 weeks old) were acclimatized for one week. After the mice were anesthetized with isoflurane 3 days before the application of Aldara cream, the hair on the back (3×3 cm) was removed using a clipper. The remaining hair was completely removed by leaving the hair removal cream for 1 minute. The mice were left for 72 hours to heal the wounds. To induce psoriasis, Aldera Cream (5% Imiquimod, Dong-A ST) 62.5 mg was applied at the same time point (AM 10:00) once/day 7 times, and 150 μl of test substance or positive control was applied from the 4th day at the same time point (PM 14:00) for 4 days. The composition of each test group was as follows. a) Con: Normal+excipient application group: 8 animals; b) Veh: Aldara cream+excipient application group: 8 animals; c) Beta: Aldara+Betamethasone 0.05% applied group: 8 animals; and d) Compound 51 1%: Aldara+Compound 51 1% application group: 3 animals. The autopsy proceeded in a non-fasting state, and the dorsal skin was removed from each mouse, rapidly frozen in liquid nitrogen, and stored at −80° C. before for the subsequent experiments.
After taking pictures on the 0th, 4th, and 8th days to measure the skin index values, they were visually observed and recorded to measure the degree of skin lesions on the dorsal area. The condition of psoriasis skin lesions in each group was scored according to the evaluation index (erythema, skin thickness, dead skin cells) as None (0), Weak (1), Moderate (2), Severe (3), Very Severe (4) and set the score, and by summing up the scores of the three items, an evaluation score between a minimum of 0 and a maximum of 12 was calculated. […] After taking pictures in all groups on the 0th, 4th and 8th days, the evaluation indexes (erythema, skin thickness, and dead skin cells) of the psoriasis skin lesions in each group were graphed.

[2] = system: psoriasis-related cytokine genes IL-17A, IL-17F, IL-23A (p19), IL-12A (p35), IL-12B (p40), IL-1β; assay: Aldara cream-induced mouse psoriasis model: qRT-PCR of dorsal skin; type: in vivo; conditions: dorsal skin RNA, normalized to 18s rRNA; topical; Compound 51 1%, Betamethasone 0.05%; versus Veh
Description: as §1
(§2) BALB/c mice (purchased through JA BIO, 27 males, 8 weeks old) were acclimatized for one week. After the mice were anesthetized with isoflurane 3 days before the application of Aldara cream, the hair on the back (3×3 cm) was removed using a clipper. The remaining hair was completely removed by leaving the hair removal cream for 1 minute. The mice were left for 72 hours to heal the wounds. To induce psoriasis, Aldera Cream (5% Imiquimod, Dong-A ST) 62.5 mg was applied at the same time point (AM 10:00) once/day 7 times, and 150 μl of test substance or positive control was applied from the 4th day at the same time point (PM 14:00) for 4 days. […]

[3] = system: IL-6 production in RAW264.7 cells; assay: LPS-induced IL-6 production in RAW264.7 cells (ELISA); type: cell-based, mouse; conditions: for avg / 1 well / 2 well / avg (%): Table 2; for avg / 1 well / 2 well: IL-6 production after LPS; for avg: average of wells; for 1 well: replicate well 1; for 2 well: replicate well 2; for avg (%): relative to LPS (100%); for IL-6 / IL-6 (%): Table 1, compound 77 at 8 μg/ml, FK506 concentration not given; for IL-6 (%): relative to IL-6 production induced by LPS (100%)
Description: The inhibitory effect on induced IL-6 cytokine production was analyzed. RAW264.7 cells (obtained from the Korean Cell Line Bank) were seeded at a density of 5×10^5 cells/well in a 12-well plate and stabilized in a CO2 incubator at 37° C. with 5% carbon dioxide and saturated humidity. After 24 hours of incubation, the compounds of the present invention were prepared in DMEM at concentrations of 0 μg/mL or 8 μg/mL and pre-treated for 30 minutes. Next, lipopolysaccharide (LPS, Sigma-Aldrich, Cat No. L2887) was treated to a concentration of 1 μg/mL to induce an inflammatory response for 24 hours. Subsequently, mouse IL-6 ELISA kit (Labiskoma, Cat No. K0331230P) and mouse TNF-α ELISA kit (Labiskoma, Cat No. K0331186P) were used according to the manufacturer's instructions, and absorbance was measured. FK506 (FK-506 monohydrate, manufacturer: MilliporeSigma, product number: F4679, U.S.A) was used as a control substance.
After inducing inflammation as described in (1) and (2) above, the supernatant was collected, and the quantification of IL-6 in the supernatant was performed using the IL-6 ELISA kit (Mouse IL-6 ELISA Kit, pink-ONE, manufactured by Komabiotech, Product No. K0331230P) according to the manufacturer's instructions. Specifically, the amount of IL-6 in the supernatant was quantified according to the ELISA kit protocol, and the absorbance was measured at OD 450 nm using a microplate reader (Multiskan Sky, manufactured by Thermo Fisher Scientific). […] In Table 1 to Table 3, FIG. 1, and FIG. 2, the relative values of IL-6 generated after pretreatment with the compounds of the present invention were expressed as a percentage relative to the IL-6 production (100%) induced by LPS, TNF-α, or IFN-β treatment.

[4] = system: psoriasis symptoms induced by Aldara cream in BALB/c mice; assay: Aldara cream-induced mouse psoriasis model: evaluation of scratching; type: in vivo; conditions: 8th day; topical; Compound 51 1%, Betamethasone 0.05%; versus Veh
Description: as §1, §2

[5] = system: TSLP in HaCaT keratinocytes; conditions: 8 μg/ml, 1 h pre-treatment, TNF-α 100 ng/ml 24 h; compared to the control group FK506
Description: (§3) HaCaT keratinocytes, a human skin keratinocyte cell line (obtained from the Korean Cell Line Bank), were seeded in a 12-well plate at a density of 1×10^5 cells per well and cultured for at least 12 hours in a 37° C. humidified incubator containing 5% carbon dioxide and saturated water vapor. After pre-treatment with the compound 77 of the present invention (0 μg/ml or 8 μg/ml) or the immunosuppressant FK506 (FK-506 monohydrate, manufacturer: MilliporeSigma product number: F4679, USA) as a control for 1 hour, TNF-α (Tumor Necrosis Factor-α human, manufacturer: MilliporeSigma) was treated for 24 hours as an inflammatory response inducer at a concentration of 100 ng/ml. Next, the supernatant was obtained and TSLP and IL-6 ELISA (Human TSLP and IL-6 ELISA Kit, pink-ONE, manufacturer: Komabiotech) each was performed. Specifically, the contents of TSLP and IL-6 in the supernatant were quantified according to the protocol of the ELISA kit with the supernatant, and absorbance was measured at a wavelength of 450 nm using a microplate reader (Multiskan Sky, manufacturer: Thermo Fisher Scientific, product number: 51119600DP).

[6] = system: interleukin-6 in HaCaT keratinocytes; conditions: 8 μg/ml, 1 h pre-treatment, TNF-α 100 ng/ml 24 h; compared to the control group FK506
Description: as §3

| SMILES | skin lesions (pictures, visual) [1] | PASI Score [1] | psoriasis-related cytokine genes (IL-17A, IL-17F, IL-23A (p19), IL-12A (p35), IL-12B (p40), IL-1β) expression [2] | pruritus (scratching counts, 30 minutes) [4] | IL-6 ([3]; LPS 1 μg/mL 24 h) [pg/mL] | IL-6 (%) [3] [%] | further results |
| --- | --- | --- | --- | --- | --- | --- | --- |
| CCCC(NC)C(=O)NCc1ccc(-c2ccc(Cl)c(Cl)c2)cc1.Cl (racemic) [Compound 51, (R)/(S)—N-((3′,4′-dichloro-[1,1′-biphenyl]-4-yl)methyl)-2-(methylamino)pentanamide hydrochloride] | visually improved | significantly decreased | significantly reduced | tendency to decrease pruritus | – | – | avg ([3]; compound at 2 μg/ml): 2615.50; avg ([3]; compound at 4 μg/ml): 586.95; 1 well ([3]; compound at 2 μg/ml): 2815.00; 1 well ([3]; compound at 4 μg/ml): 669.30; 2 well ([3]; compound at 2 μg/ml): 2416.00; 2 well ([3]; compound at 4 μg/ml): 504.60; avg (%) ([3]; compound at 2 μg/ml): 56.11%; avg (%) ([3]; compound at 4 μg/ml): 12.59% |
| CCCC(N)C(=O)NCCc1ccc(-c2ccc(C(F)(F)F)cc2)cc1.Cl (racemic) [Compound 77, (R)/(S)-2-amino-N-(2-(4′-(trifluoromethyl)-[1,1′-biphenyl]-4-yl)ethyl)pentanamide hydrochloride] | – | – | – | – | 191.20 | 13.19 | amount of TSLP [5]: significantly reduced; amount of interleukin-6 [6]: significantly reduced; Relative amount of IL-6 compared to LPS induction (%) ([3]; Table 3, LPS 1 μg/mL 24 h, compounds at 8 μg/mL (FIG. 1), LPS alone = 100%): 5% |
| CCC(=O)OCC(=O)[C@@]1(OC(=O)CC)[C@@H](C)C[C@H]2[C@@H]3CCC4=CC(=O)C=C[C@]4(C)[C@@]3(F)[C@@H](O)C[C@@]21C [Beta, Betamethasone dipropionate, reference compound] | visually improved | significantly decreased | significantly reduced | significant decrease | – | – | – |
| C=CC[C@@H]1/C=C(\C)C[C@H](C)C[C@H](OC)[C@H]2O[C@@](O)(C(=O)C(=O)N3CCCC[C@H]3C(=O)O[C@H](/C(C)=C/[C@@H]3CC[C@@H](O)[C@H](OC)C3)[C@H](C)[C@@H](O)CC1=O)[C@H](C)C[C@@H]2OC [FK506, FK-506 monohydrate, reference compound] | – | – | – | – | 656.86 | 45.31 | – |
